Measured values as given in patent US9217743B2, “Screening method utilizing thalidomide-targeting factor” (Tokyo Institute of Technology, priority 2009, dated 2015).
“Also recorded” adds a separate entry of the source.

Experiments:
[1] = system: zebrafish embryos; test: Zebrafish embryo development, pectoral fins and otic vesicles; format: in vivo, zebrafish (Danio rerio); conditions: for fin and otic vesicle development: AMO injected into one cell stage embryos
[2] = system: shh; test: Whole-mount in situ hybridization of zebrafish fin buds; format: in vivo; conditions: AMO injected embryos
Source text: (§1) To obtain a clue to the pathway(s) downstream of CRBN and thalidomide, the present inventors analyzed well-known key molecules in fin development. Sonic hedgehog (Shh) is expressed in the zone of polarizing activity (ZPA) and is responsible for anteroposterior patterning of the limb and fin (Cited Literature 27), whereas Fgf8 is expressed in the apical ectodermal ridge (AER) of the limb and fin and is necessary for outgrowth of the limb and fin along the proximodistal axis. […] Thus, an inhibitor of FGF8 production is a possible downstream target of thalidomide and the CRBN-containing E3 complex.
(§2) This assay was carried out in accordance with Cited Literature 41. Antisense probe for zcrbn mRNA was directed against the 5′-coding region of 513 bp. Antisense probe for zcul4a was directed against the 3′ untranslated region (3′ UTR) of 590 bp. Probes for shh and fgf8 were kindly provided by Dr. Krauss and Dr. Thisse, respectively. To increase permeability of probes, fixed embryos were incubated with PBS containing 0.1% Tween-20 and […] proteinase K for two minutes at room temperature.

[3] = system: fgf8a; test: as above; format: in vivo; conditions: AMO injected embryos
Source text: as §1, §2

[4] = biological target: CRBN (Homo sapiens, UniProt Q96SW2); test: Elution of CRBN from thalidomide-immobilized beads by test compound, Western blotting; conditions: for CRBN eluted from thalidomide-immobilized beads by the compound: 293T cell extracts, buffer containing 0.1 to 1 mM compound, one hour, Western blotting; for bindability with CRBN: concluded from elution from thalidomide-immobilized beads
Method: Firstly, thalidomide-immobilized FG beads are prepared. The immobilized beads are mixed and incubated with extracts of CRBN-expressing cells or recombinant proteins for one hour or longer in a rotator at 5 rpm and 4° C. Then, after the beads are washed with a buffer, for example, a buffer containing a thalidomide derivative as a test substance is passed through the beads to see whether CRBN is eluted. Examples of a detection method include Western blotting, dot blotting, CBB staining, and silver staining.

[5] = system: multiple myeloma cell Kms12; test: Growth inhibition of multiple myeloma cells, Cell Count-Reagent SF; format: cell-based, human; conditions: 48 hours, 37° C., 5% CO2
Method: KMS-12 cells were incubated with thalidomide or 5HPP-33 (100 μM) for 48 hours at 37° C. in 5% CO2. For measurement of the number of the living cells, Cell Count-Reagent SF (Nacalai Tesque, Inc.) was added to culture media for 2 hours at the end of the 48 hours culture. The absorbance at 450 nm was measured.
Multiple myeloma cell Kms12 were cultured in RPMI Medium 1640 containing 10% FBS. For treatment with drugs, the medium was adjusted to contain 2×10^5 Kms12 cells/ml and dispensed in 2 ml Eppendorf tubes in 2 ml aliquots. As the stock solution, thalidomide or 5HPP-33 were dissolved in dimethylsulfoxide (DMSO) at concentration of 100 mM and […] respectively. The stock solution was added to the cell suspension at 2 μl/2 ml, followed by gentle and thorough inversion mixing. Cell mixture was dispensed in a 96 well plate at 100 μl/well and cultured at 37° C. and 5% CO2 for 48 hours. For measurement of the number of the living cells, Cell Count-Reagent SF (Nacalai Tesque, Inc.) was added to culture media and incubated for 2 hours. The absorbance at 450 nm, which is correlate to the number, were measured by GloMax-Multi+ Detection System (Promega KK) For preparation of a calibration curve, 1×10^6, 3×10^5 and 1×10^5 Kms12 cells/ml were used. Defining the number of cells treated with the solvent as 100, the number of cells treated with the drugs were expressed as relative values.

[6] = system: DDB1; test: Elution of DDB1 from thalidomide-immobilized beads by test compound, Western blotting; conditions: Example 6; 293T extracts; elution with 1 mM compound

Sequence of CRBN (Q96SW2 whole entry): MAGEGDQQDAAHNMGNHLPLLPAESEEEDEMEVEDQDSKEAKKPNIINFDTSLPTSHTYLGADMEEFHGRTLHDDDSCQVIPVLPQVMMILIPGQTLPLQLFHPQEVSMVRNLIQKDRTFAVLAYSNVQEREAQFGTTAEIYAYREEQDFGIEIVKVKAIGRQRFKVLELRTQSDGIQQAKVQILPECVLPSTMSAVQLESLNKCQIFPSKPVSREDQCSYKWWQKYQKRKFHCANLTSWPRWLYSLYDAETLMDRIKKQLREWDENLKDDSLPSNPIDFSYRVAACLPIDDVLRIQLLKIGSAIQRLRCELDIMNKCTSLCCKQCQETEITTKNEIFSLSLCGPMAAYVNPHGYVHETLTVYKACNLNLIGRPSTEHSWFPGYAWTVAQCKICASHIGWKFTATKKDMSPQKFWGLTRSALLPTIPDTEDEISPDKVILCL

| CRBN in the eluate fraction ([4]; Example 6, 293T extracts, elution with 1 mM compound) | Molecule | fin and otic vesicle development [1] | size of otic vesicles, of the control size ([1]; knockdown embryos at 27 hpf) [%] | shh expression [2] | fgf8a expression [3] | CRBN eluted from thalidomide-immobilized beads by the compound [4] | bindability with CRBN [4] | proliferation of the multiple myeloma cell Kms12 [5] | DDB1 in the eluate fraction [6] | reduction of the size of otic vesicles compared to wild type ([1]; AMO-injected embryos at 27 hpf) [%] |
| --- | --- | --- | --- | --- | --- | --- | --- | --- | --- | --- |
|  | zcul4a AMO: antisense morpholino oligo for zcul4a, 5′-CTGGTGCTGAACATCTTCTGCCATC-3′ (SEQ ID NO: 6) (all phosphorodiamidate morpholino (PMO)) | caused defects | 40 | no difference | reduced |  |  |  |  |  |
|  | CC(C)c1cccc(C(C)C)c1N1C(=O)c2ccc(O)cc2C1=O [5HPP-33] |  |  |  |  | very little CRBN was eluted; also recorded: not eluted | low bindability and low and extremely low bindability | potent suppressive action; also recorded: potently suppressed; also recorded: growth inhibition |  |  |
| not detected | O=C1NC(=O)c2ccccc21 [phthalimide] |  |  |  |  | very little CRBN was eluted; also recorded: not eluted | low bindability |  | not detected |  |
|  | zcrbn-AMO: antisense morpholino oligo for zcrbn, 5′-AGAGCTGTAGCTGGTTCCCCATTTC-3′ (SEQ ID NO: 5) (all phosphorodiamidate morpholino (PMO)) | exhibited defects |  | no difference | reduced |  |  |  |  | 40 |
